{
  "source": "patent US20240199555A1",
  "about": "“APPLICATIONS OF BIASED LIGANDS OF THE SEROTONIN 5-HT7 RECEPTOR FOR THE TREATMENT OF PAIN, MULTIPLE SCLEROSIS AND THE CONTROL OF THERMOREGULATION” (Centre National de la Recherche Scientifique, priority 2021, published 2024)",
  "key": {"Sprague-Dawley male rats": {"tested_on": "Sprague-Dawley male rats", "experiment": "Formalin induced inflammatory pain model", "assay_type": "in vivo", "details": "single s.c., Serodolin 10 mg/kg, MOA51 1 mg/kg, morphine", "protocol": "FIG. 18: Effect of a single administration of Serodolin (AIC01) or MOA51 in the formalin test in rats. Effect of a single subcutaneous administration of Serodolin (AIC01) or MOA51 in the formalin test in rats. In this test, Sprague-Dawley male rats received unilateral injection of a 2.5% formalin solution (50 μl) into the plantar aspect of the hindpaw on testing day (i.e. D0). Control group received Vehicle (20% DMSO/5% Tween 80/NaCl). Serodolin was subcutaneously (sc) administrated at 10 mg/kg and MOA51 at 1 mg/kg. Positive control animals were treated with morphine (3 mg/kg, sc). Paw licking time was measured. Results are expressed as mean±s.e.m. Percentage are expressed as decreased as compared to the vehicle-treated group and represented as figure (B). ***: p<0.001 as compared to the vehicle-treated group, Bonferroni's test after significant Two-way Repeated Measures ANOVA. NS: Non-significant.\nSprague-Dawley male rats (n=10 rats per group) received unilateral injection of a 2.5% formalin solution (50 μl) into the plantar aspect of the hindpaw on testing day (i.e. D0). Experience was separated into 4 groups of animals. Formalin animals+vehicle-treated group; […]—Formalin animals+Sponsor's Serodolin (10 mg/kg), s.c.—Formalin animals+Sponsor's MOA51 (1 mg/kg), s.c.—Formalin animals+internal validator-treated group (Morphine at 4 mg/Kg, s.c.). Single subcutaneous administration of the Vehicle and Sponsor's Compound 30 min (or other timing depending on Sponsor's design) before formalin injection on testing day (i.e. D0)/Subcutaneous administration of Morphine 30 min before formalin injection on testing day (i.e. D0). Hindpaw licking time recorded in consecutive 5 minutes periods from 0 to 5 minutes (early phase) and 17 to 27 minutes (late phase) after formalin injection.\nWe evaluated the effect of Serodolin as well as MOA51 in rats in the formalin test, an acute and tonic pain model based on the use of a chemical stimulus. Subcutaneous injection of formalin into the right hindpaw produces a biphasic painful response of increasing and decreasing intensity for about 30 minutes after the injection. […] Although not significant, Serodolin, MOA51 and morphine have an inhibitory effect (−40%, −35% and −57% respectively) during the early phase."}, "HEK-293 mock cells": {"tested_on": "HEK-293 mock cells", "experiment": "Control in mock-transfected HEK-293 cells (cAMP, ERK phosphorylation)", "assay_type": "cell-based, human", "protocol": "ERK phosphorylation was monitored by western blotting after treatment of cells with 10 μM of ligands at different times ranging from 2 to 60 minutes. […] The kinetics of ERK phosphorylation elicited by 5-CT, Serodolin and MOA-51 were very similar: activation was fast and transient, and reached a pick between 2 and 7 minutes after drug exposure. However, ERK phosphorylation-induced by Serodolin and MOA-51 was more protracted compared to 5-CT, the reference agonist."}, "mouse": {"tested_on": "mouse", "experiment": "Effect on body temperature", "assay_type": "in vivo", "text": "FIG. 13: Evaluation of the effect of Serodolin on body temperature.\nFIG. 17: Evaluation of the effect of MOA51 on body temperature. Results expressed in ° C.\nThe time course of the effect of Serodolin on the body temperature has been evaluated in the mouse following intravenous administration."}, "C57BL/6 mice": {"tested_on": "C57BL/6 mice", "experiment": "Spared Nerve Injury (SNI) neuropathic pain model, Von Frey", "details": "s.c.", "method": "Pregabalin, vehicle or compounds solutions are subcutaneously administrated for 8 consecutive days. • (A) Mechanical response threshold after the first administration (D+10). […] Positive control animals were treated with Pregabalin (5 mg/kg, sc). Statistical differences are indicated compared to vehicle group (Two-way RM ANOVA followed by Bonferroni post-hoc test: ***p<0.001, ** p<0.01, * p<0.05). […] Positive control animals were treated with Pregabalin (5 mg/kg, sc). Statistical differences are indicated compared to vehicle group (Two-way RM ANOVA followed by Bonferroni post-hoc test: ***p<0.001, ** p<0.01, * p<0.05). […] (Two-way RM ANOVA followed by Bonferroni post-hoc test: ***p<0.001, ** p<0.01, * p<0.05)\nMOA51 and Serodolin (AIC01) compounds were diluted in NDT solution (NaCl 0.9%—DMSO 20%—Tween80 5%). […] AIC01 was resuspended at 0.5 mg/mL and administrated at a ratio of 100 μl per 10 g (dose of 5 mg/kg).\nExperiment starts with 8 weeks old male C57B16J mice (from Charles River). Study was performed on 40 mice (2 mice were excluded during the study due to health guidelines) divided in 4 randomized groups. • Group A: s.c. injection at 5 mg/kg of pregabalin. • Group B: s.c. injection at 0.5 mg/kg of MOA51. • Group C: s.c. injection at 5 mg/kg of Serodolin (AIC01). • Group D: s.c. injection of NDT solution (referred as Vehicle hereafter).\nCompounds solutions, pregabalin and vehicle were subcutaneously administrated (100 μl/10 g) for 9 consecutive days, starting 10 days after surgery. Ligature and transection of the common peroneal and tibial distal branches of the sciatic nerve was made leaving the sural branch intact. 7 days post-surgery, a decrease of threshold response to Von Frey filaments of ipsilateral hind-paw was observed corresponding to neuropathic pain apparition (mechanical allodynia). Mechanical threshold response of mice were measured with calibrated Von Frey filaments using the up/down method. Experimenter was blind to mice treatment. Measures are performed as follow: one baseline measure before surgery, one measure at D+10, D+12, D+14, D+16 and D+18 before drug's administration, and 1 h, 2 h post-drug administration. A supplementary measure 4 h post-drug administration was performed at D+10 and D+18.\nTwo-way RM ANOVA (followed by Bonferroni post-hoc test) was used to analysed time course response at D+10 and D+18. Area under the curve was determined with the 1 h and 2 h post-drug administration measures to investigated tolerance of repeated administration of compounds"}, "mice": {"tested_on": "mice", "experiment": "Acetic acid-induced writhing test", "assay_type": "in vivo", "protocol": "(§1) FIG. 9: Analgesic effect of Serodolin in the acetic acid-induced writhing test. In this test, nociception was induced by an intraperitoneally injection (ip) of 0.1 ml/10 g acid acetic solution (10 ml/kg) in peripheral origin. Serodolin at increasing dosage was administrated by oral (po), intravenous (iv) or subcutaneous (sc) route before acid acetic injection (upper panel). Positive control animals were pretreated morphine (3 mg/kg, sc) 10 minutes before acetic acid. Five minutes after i.p. injection of acetic acid the number of writhing was recorded for 10 minutes. Data mean±SEM of values obtained from a representative experiment (n=10 animals/group). ****p<0.0001 ***p<0.001 **p<0.01 *p<0.05 as compared with the control group (Vh).\nas §1, with “16:” for “9:”, “MOA51” for “Serodolin”, “i.p.injection” for “i.p. injection”, “animals/group).” for “animals/group). ****p<0.0001 ***p<0.001”, “**p<0.01” for “**p<0.01 *p<0.05”\nWrithing tests: Mice (25-35 g). Groups of mice (n=10) received by oral, subcutaneous or intravenous route Serodolin at different doses (0.1-10 mg/kg) one hour before intraperitoneally injection of 1% acetic acid in a volume of 10 ml/kg. Control group received vehicle (10 ml/kg, solution of 20% DMSO and 5% tween 80). The test was carried out 5 minutes later after acid acetic injection. The characteristic writhing responses have been observed individually and counted for 10 minutes.\nAnalgesic activity was first evaluated using the acetic acid abdominal constriction test (writhing test), a chemical model of visceral pain. We evaluated the dose-response effect of Serodolin following single oral, intravenous and subcutaneous administration of the compound one hour before injection of acetic acid.\nAnalgesic activity was evaluated using the acetic acid abdominal constriction test (writhing test), a chemical model of visceral pain. We evaluated the dose-response effect of MOA51 following single oral, intravenous and subcutaneous administration of the compound one hour before injection of acetic acid. MOA51 administered by the oral route induced statistically significant dose-dependent decreases in the number of writhings at and above the dose of 1 mg/kg. By the intravenous route, MOA51 induced dose-dependent decreases in the number of writhings at and above the dose of 0.1 mg/kg."}},
  "data": [
    {"smiles": "O=C(c1ccc(F)cc1)C1CCN(Cn2c(=O)[nH]c3ccccc32)CC1", "note": "[MOA51]", "values": [
      {"measurement": "inhibitory effect on paw licking, early phase", "setting": "Sprague-Dawley male rats; 0 to 5 minutes, not significant", "value": "−35", "unit": "%"},
      {"measurement": "inhibition of licking, late phase", "setting": "Sprague-Dawley male rats; 17 to 27 minutes", "value": "−78", "unit": "%"},
      {"measurement": "ERK phosphorylation in HEK-293 mock cells", "setting": "HEK-293 mock cells", "value": "neither Serodolin, nor MOA-51 were able to induce ERK phosphorylation"},
      {"measurement": "decrease in body temperature, Emax", "setting": "mouse; 0.1 mg/kg, at 30 min, not statistically significant", "value": "−2.3", "unit": "°C"},
      {"measurement": "decrease in body temperature, Emax", "setting": "mouse; 0.3 mg/kg, at 30 min", "value": "−5.4", "unit": "°C"},
      {"measurement": "decrease in body temperature, Emax", "setting": "mouse; 1 mg/kg, at 180 min", "value": "−7.2", "unit": "°C"},
      {"measurement": "tolerance after repetitive administration (AUC)", "setting": "C57BL/6 mice; 9 consecutive days", "value": "didn't present any tolerance effect after repetitive administration"},
      {"measurement": "mechanical response threshold vs vehicle", "setting": "C57BL/6 mice; first (D+10) and last (D+18) administration, 1 h and 2 h", "value": "significant increase in the mechanical threshold response"},
      {"measurement": "writhings at the top dose, intravenous route", "setting": "mice; 10 mg/kg, intravenous", "value": "no further acetic acid-induced writhings were observed"},
      {"measurement": "dose giving decrease in number of writhings, intravenous route", "setting": "mice; intravenous, one hour before acetic acid", "value": "≥ 0.1", "unit": "mg/kg"},
      {"measurement": "dose giving significant decrease in number of writhings, oral route", "setting": "mice; oral, one hour before acetic acid", "value": "≥ 1", "unit": "mg/kg"},
      {"measurement": "dose giving significant decrease in number of writhings, subcutaneous route", "setting": "mice; s.c., one hour before acetic acid", "value": "≥ 1", "unit": "mg/kg"},
      {"measurement": "writhings at the top dose, subcutaneous route", "setting": "mice; top dose, subcutaneous", "value": "absence of acetic acid-induced writhings"}
    ]}
  ]
}
